Data from PubChem BioAssay (NCI).
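Each compound was tested at five concentrations against cells in 96-well plates for 48 hours. TGI is the concentration that stops growth completely.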 Where a SMILES comes first, the peptide text is derived from it. The star is where a group is joined. Cbz = O=C(OCc1ccccc1)*; Boc = CC(C)(C)OC(=O)*; tBu = CC(C)(C)*

How the values were obtained:
Test in all cases: NCI tumour cell line growth inhibition, 48 h
786-0 renal = tested on: 786-0 renal
ACHN renal = tested on: ACHN renal
CCRF-CEM leukemia = tested on: CCRF-CEM leukemia
DLD-1 colon = tested on: DLD-1 colon
HOP-62 NSCLC = tested on: HOP-62 NSCLC
IGROV1 ovarian = tested on: IGROV1 ovarian
M14 melanoma = tested on: M14 melanoma
M19-MEL melanoma = tested on: M19-MEL melanoma
MOLT-4 leukemia = tested on: MOLT-4 leukemia
NCI-H522 lung = tested on: NCI-H522 lung
RPMI-8226 leukemia = tested on: RPMI-8226 leukemia
HCC-2998 colon = tested on: HCC-2998 colon
DU-145 prostate = tested on: DU-145 prostate
MDA-MB-231 breast = tested on: MDA-MB-231 breast
PC-3 prostate = tested on: PC-3 prostate
T-47D breast = tested on: T-47D breast

SMILES	TGI (786-0 renal)	TGI (ACHN renal)	TGI (CCRF-CEM leukemia)	TGI (DLD-1 colon)	TGI (HOP-62 NSCLC)	TGI (IGROV1 ovarian)	TGI (M14 melanoma)	TGI (M19-MEL melanoma)	TGI (MOLT-4 leukemia)	TGI (NCI-H522 lung)	TGI (RPMI-8226 leukemia)	TGI (HCC-2998 colon)	TGI (DU-145 prostate)	TGI (MDA-MB-231 breast)	TGI (PC-3 prostate)	TGI (T-47D breast)
COc1ccc(-c2cc(=O)c3ccccc3[nH]2)c(OC)c1	> 100 µM	> 100 µM	> 100 µM	> 100 µM	> 100 µM	> 100 µM	> 100 µM	> 100 µM	> 100 µM	> 100 µM	> 100 µM					
C=C1CCC23CC(CC[C@@H]2[C@@]12C[C@@H](c1ccoc1)OC2=O)OC3=O (stereo partly drawn)	> 100 µM	> 100 µM	> 100 µM	> 100 µM	> 100 µM	> 100 µM	> 100 µM	> 100 µM	> 100 µM	> 100 µM	> 100 µM	> 100 µM				
Cc1ccc(S(=O)(=O)OC(c2ccc(Cl)cc2Cl)C2OC(=O)c3ccccc32)cc1 (stereo not drawn)	> 100 µM	> 100 µM	> 100 µM		> 100 µM	> 100 µM	> 100 µM	> 100 µM	> 100 µM	> 100 µM	> 100 µM					
C=CCc1cc(-c2cc(CC=C)c(O)c(CNCCCl)c2)cc(CNCCCl)c1O	> 100 µM	46.2 µM	81.8 µM	57 µM	33.2 µM	51.4 µM	32.7 µM	32.3 µM	53.4 µM	32.8 µM	61.9 µM	31.4 µM				
CCN(CC)CC(=O)O[C@]1(CC)C(=O)OCc2c1cc1n(c2=O)Cc2cc3ccccc3nc2-1	0.13 µM	0.146 µM		> 100 µM	< 0.048 µM	1.04 µM	0.318 µM	0.738 µM	0.0749 µM	1.44 µM	1.85 µM	1.28 µM	0.21 µM	31.3 µM	> 100 µM	0.404 µM
COc1cccc(/C=C2\C(=O)N(C(=O)c3ccc(NC(C)=O)cc3)N=C2C)c1	> 100 µM	> 100 µM	> 100 µM	> 100 µM	> 100 µM		> 100 µM	> 100 µM	> 100 µM	> 100 µM		> 100 µM				
CCOC(=O)C(Cc1cn(S(=O)(=O)c2ccccc2)c2ccccc12)(NC(C)=O)C(=O)OCC	> 100 µM	> 100 µM	72 µM	> 100 µM	> 100 µM	> 100 µM	> 100 µM	> 100 µM	61.4 µM	52.5 µM	44.7 µM	> 100 µM				
Cc1ccccc1N=Nc1ccc(N/N=C2/CCCNC2=O)c(C)c1	> 100 µM	> 100 µM	> 100 µM		> 100 µM	> 100 µM	> 100 µM		> 100 µM	> 100 µM	> 100 µM	> 100 µM	> 100 µM	> 100 µM	> 100 µM	> 100 µM
CC(OC(C)(C)C)C(NC(=O)C(CCCCNC(=O)OC(C)(C)C)NC(=O)C(Cc1c[nH]c2ccccc12)NC(=O)C(Cc1ccccc1)NC(=O)OCc1ccccc1)C(=O)NC(Cc1ccccc1)C(=O)O (stereo not drawn) (Cbz-FWK(Boc)T(tBu)F-OH; configuration not given here)	> 100 µM	> 100 µM	> 100 µM		> 100 µM	98.9 µM	> 100 µM		> 100 µM	85 µM	> 100 µM	> 100 µM	> 100 µM	> 100 µM	> 100 µM	73.6 µM
NCCCCC(N)C(=O)NCCNc1ccc(NCCNC(=O)C(N)CCCCN)c2c1C(=O)c1ccccc1C2=O (stereo not drawn)	> 100 µM	> 100 µM	> 100 µM		> 100 µM	> 100 µM	> 100 µM		> 100 µM	> 100 µM	> 100 µM	> 100 µM	> 100 µM	> 100 µM	> 100 µM	> 100 µM
O=C1NC2OCC(O)C(O)C2O1 (stereo not drawn)	> 100 µM	> 100 µM	> 100 µM	> 100 µM	> 100 µM	> 100 µM	> 100 µM	> 100 µM	> 100 µM	> 100 µM		> 100 µM				
CCn1c(SCC(=O)NNC(=S)Nc2ccc(C)cc2)nc2ccccc2c1=O	> 100 µM	> 100 µM	> 100 µM		> 100 µM	> 100 µM	> 100 µM		> 100 µM	> 100 µM	> 100 µM	> 100 µM	> 100 µM	> 100 µM	> 100 µM	> 100 µM
COC(=O)CCc1cc(O)c2c(c1)C(C(=O)OC)C(c1ccc(O)c(O)c1)O2 (stereo not drawn)	> 100 µM	> 100 µM	> 48.7 µM		> 100 µM	> 92.5 µM	> 100 µM		> 88.8 µM	> 100 µM	> 92.9 µM	39.8 µM	> 83 µM	> 100 µM	> 100 µM	> 72.3 µM
